The results in this text go back to patent US8853213B2, “Bicyclic compound for modulating G protein-coupled receptors” (Hanmi Pharm. Co., Ltd, priority 2011, dated 2014).

This assay deals with T1, GPR119 (Homo sapiens, UniProt Q8TDV5).
T1 construct: host or cells: CHO-K1 (CRE-bla reporter, doxycycline-induced)
T1 sequence (Q8TDV5 1-335): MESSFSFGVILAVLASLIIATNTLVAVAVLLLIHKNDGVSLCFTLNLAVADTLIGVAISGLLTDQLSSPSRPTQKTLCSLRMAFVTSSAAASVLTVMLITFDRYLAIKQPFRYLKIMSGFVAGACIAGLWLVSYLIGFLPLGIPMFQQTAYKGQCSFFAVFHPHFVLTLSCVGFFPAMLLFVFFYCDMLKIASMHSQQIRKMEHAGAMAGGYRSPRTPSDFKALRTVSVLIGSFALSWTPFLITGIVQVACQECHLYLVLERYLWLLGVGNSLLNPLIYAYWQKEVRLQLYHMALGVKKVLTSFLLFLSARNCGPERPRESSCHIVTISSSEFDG
Briefly: Controlling Effect of GPR119 in CRE-bla CHO-K1 Cells (EC50). It counts as cell-based. The conditions noted are these: GPR119 CRE-bla CHO-K1 cell line, 5 hr incubation with compound, β-lactamase LiveBLAzer-FRET B/G readout; read-out: controlling effect against GPR119 in CRE-bla CHO-K1 cell line (EC50). In outline:
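CHO-K1 cells carrying GPR119 and a CRE-β-lactamase reporter, induced with doxycycline for 16-20 h at 37° C, then exposed to compounds in 10-fold dilutions for 5 h. CCF4-AM FRET substrate added for 2 h at room temperature; blue/green fluorescence (409 ex, […]) read and EC50 derived.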

What is called EC50 is the concentration needed to bring the measured effect to its halfway point. As for `CS(=O)(=O)c1ccc(-c2csc3c(OC4CCN(c5nc(C6CC7CCC6C7)no5)CC4)ncnc23)c(F)c1` (centres unmarked) [Example 80, 7-(2-fluoro-4-methanesulfonyl-phenyl)-4-[1-(3-bicyclo[2,2,1]heptan-2-yl[1,2,4]oxadiazol-5-yl)piperidin-4-yloxy]thieno[3,2-d]pyrimidine], the EC50 was less than 100 nM.

On to `CCc1cnc(N2CCC(Oc3ncnc4c(-c5ccc(S(C)(=O)=O)cc5F)csc34)CC2)nc1` [Example 81, 4-[1-(5-ethylpyrimidin-2-yl)-piperidin-4-yloxy]-7-(2-fluoro-4-methanesulfonyl-phenyl)-thieno[3,2-d]pyrimidine], for which the EC50 is less than 100 nM.

For the molecule `CCCc1cnc(N2CCC(Oc3ncnc4c(-c5ccc(S(C)(=O)=O)cc5F)csc34)CC2)nc1` [Example 83, 7-(2-fluoro-4-methanesulfonyl-phenyl)-4-[1-(5-propyl-pyrimidin-2-yl)-piperidin-4-yloxy]-thieno[3,2-d]pyrimidine], the EC50 is less than 100 nM.

Consider `CS(=O)(=O)c1ccc(-c2csc3c(OC4CCN(c5ncc(C6CC6)cn5)CC4)ncnc23)c(F)c1` [Example 84, 7-(2-fluoro-4-methanesulfonyl-phenyl)-4-[1-(5-cyclopropyl-pyrimidin-2-yl)-piperidin-4-yloxy]-thieno[3,2-d]pyrimidine], for which the EC50 was less than 100 nM.

With `CS(=O)(=O)c1ccc(-c2csc3c(OC4CCN(c5ncccn5)CC4)ncnc23)c(F)c1` [Example 85, 7-(2-fluoro-4-methanesulfonyl-phenyl)-4-(1-pyrimidin-2-yl-piperidin-4-yloxy)-thieno[3,2-d]pyrimidine], the EC50 was less than 100 nM.

On to `CC(C)c1ccc(-c2cnc(N3CCC(Oc4ncnc5c(-c6ccc(S(C)(=O)=O)cc6F)csc45)CC3)nc2)cc1` [Example 86, 7-(2-fluoro-4-methanesulfonyl-phenyl)-4-{1-[5-(4-isopropylphenyl)-pyrimidin-2-yl)-piperidin-4-yloxy]-thieno[3,2-d]pyrimidine], for which the EC50 was less than 100 nM.

For `CC(=O)N1CCC(Oc2ncnc3c(-c4ccc(S(C)(=O)=O)cc4F)csc23)CC1` [Example 87, 1-(4-(7-(2-fluoro-4-methanesulfonyl-phenyl)thieno[3,2-d]pyrimidin-4-yloxy)piperidin-1-yl)ethanone], the EC50 was more than 1000 nM.

On to `CC(C)(C)C(=O)N1CCC(Oc2ncnc3c(-c4ccc(S(C)(=O)=O)cc4F)csc23)CC1` [Example 88, 1-(4-(7-(2-fluoro-4-methanesulfonyl-phenyl)thieno[3,2-d]pyrimidin-4-yloxy)piperidin-1-yl)-2,2-dimethylpropan-1-one], for which the EC50 is less than 100 nM.

Regarding `CS(=O)(=O)c1ccc(-c2csc3c(OC4CCN(C(=O)c5ccccc5)CC4)ncnc23)c(F)c1` [Example 89, {4-[7-(2-fluoro-4-methanesulfonyl-phenyl)-thieno[3,2-d]pyrimidin-4-yloxy]-piperidin-1-yl}phenyl-methanone], the half-maximal effective concentration (EC50) is less than 100 nM.

As to `CS(=O)(=O)c1ccc(-c2csc3c(OC4CCN(C(=O)c5cccnc5)CC4)ncnc23)c(F)c1` [Example 90], the EC50 was more than 1000 nM.

Regarding `CS(=O)(=O)c1ccc(-c2csc3c(OC4CCN(Cc5ccccc5)CC4)ncnc23)c(F)c1` [Example 91, 4-(1-benzylpiperidin-4-yloxy]-7-(2-fluoro-4-methanesulfonyl-phenyl)thieno[3,2-d]pyrimidine], the EC50 was less than 100 nM.

With `CC(C)c1csc(N2CCC(Oc3ncnc4c(-c5ccc(S(C)(=O)=O)cc5F)csc34)CC2)n1` [Example 93, 7-(2-fluoro-4-methanesulfonyl-phenyl)-4-[1-(4-isopropyl-thiazo-2-yl)piperidin-4-yloxy]-thieno[3,2-d]pyrimidine], the EC50 was more than 1000 nM.

Take `CC(C)n1nnc(N2CCC(Oc3ncnc4c(-c5ccc(S(C)(=O)=O)cc5F)csc34)CC2)n1` [Example 94, 7-(2-fluoro-4-methanesulfonyl-phenyl)-4-(1-(2-isopropyl-2H-tetrazol-5-yl)piperidin-4-yloxy)thieno[3,2-d]pyrimidine]: the EC50 is less than 100 nM.

`CC(C)c1nc(N2CCC(Oc3ncnc4c(-c5ccc(S(C)(=O)=O)cc5F)csc34)CC2)no1` [Example 95, 7-(2-fluoro-4-methanesulfonyl-phenyl)-4[1-(5-isopropyl-[1,2,4]oxadiazol-3-yl)-piperidin-4-yloxy]-thieno[3,2d]pyrimidine]: the EC50 was less than 100 nM.

As to `COc1ccc(-c2csc3c(OC4CCN(c5nc(C(C)C)no5)CC4)ncnc23)c(Cl)c1` [Example 96, 5-(4-(7-(2-chloro-4-methoxyphenyl)thieno[3,2-d]pyrimidin-4-yloxy)piperidin-1-yl)-3-isopropyl-1,2,4-oxadiazole], the EC50 was less than 100 nM.

On to `CC(C)c1noc(N2CCC(Oc3ncnc4c(-c5ccc(F)c(F)c5F)csc34)CC2)n1` [Example 97, 4-[1-(3-isopropyl-[1,2,4]oxadiazol-5-yl)-piperidin-4-yloxy]-7-(2,3,4-trifluoro-phenyl)-thieno[3,2-d]pyrimidine], for which the EC50 is more than 1000 nM.

Turning to `COc1ccc(-c2csc3c(OC4CCN(c5nc(C(C)C)no5)CC4)ncnc23)cc1F` [Example 98, 7-(3-fluoro-4-methoxy-phenyl)-4-[1-(3-isopropyl-[1,2,4]oxadiazol-5-yl)-piperidin-4-yloxy]-thieno[3,2-d]pyrimidine], the EC50 was more than 1000 nM.

In the case of `CC(C)c1noc(N2CCC(Oc3ncnc4c(-c5ccc(OC(F)(F)F)cc5)csc34)CC2)n1` [Example 99, 4-[1-(3-isopropyl-[1,2,4]oxadiazol-5-yl)-piperidin-4-yloxy]-7-(4-trifluoromethoxy-phenyl)-thieno[3,2-d]pyrimidine], the EC50 was in the range of 100 to 1000 nM.

For the molecule `CC(C)c1noc(N2CCC(Oc3ncnc4c(-c5ccc(SC(F)(F)F)cc5)csc34)CC2)n1` [Example 100, 4-[1-(3-isopropyl-[1,2,4]oxadiazol-5-yl)-piperidin-4-yloxy]-7-(4-trifluoromethylsulfanyl-phenyl)-thieno[3,2-d]pyrimidine], the EC50 was more than 1000 nM.

In the case of `CC(C)c1noc(N2CCC(Oc3ncnc4c(-c5ccc(S(=O)(=O)C(F)(F)F)cc5F)csc34)CC2)n1` [Example 101, 7-(2-fluoro-4-trifluoro(methanesulfonyl)phenyl)-4-[1-(3-isopropyl-[1,2,4]oxadiazol-5-yl)-piperidin-4-yloxy]-thieno[3,2-d]pyrimidine], the EC50 was more than 1000 nM.

As for `COC(=O)c1ccc(-c2csc3c(OC4CCN(c5nc(C(C)C)no5)CC4)ncnc23)cc1` [Example 102, 4-{4-[1-(3-isopropyl-[1,2,4]oxadiazol-5-yl)-piperidin-4-yloxy]-thieno[3,2-d]pyrimidin-7-yl}-benzoic acid methylester], the EC50 was in the range of 100 to 1000 nM.

With `CC(=O)c1ccc(-c2csc3c(OC4CCN(c5nc(C(C)C)no5)CC4)ncnc23)cc1` [Example 103, 1-(4-{4-[1-(3-isopropyl-[1,2,4]oxadiazol-5-yl)-piperidin-4-yloxy]-thieno[3,2-d]pyrimidin-7-yl}-phenyl)-ethanone], the half-maximal effective concentration (EC50) is less than 100 nM.

Take `CC(C)c1noc(N2CCC(Oc3ncnc4c(-c5ccc(S(=O)(=O)C6CC6)cc5)csc34)CC2)n1` [Example 104, 7-(4-cyclopropylsulfonyl-phenyl)-4-[1-(3-isopropyl-[1,2,4]oxadiazol-5-yl)-piperidin-4-yloxy]-thieno[3,2-d]pyrimidine]: the EC50 is less than 100 nM.
